Test results reported in article PMC11219871, “Epigenetic-based differentiation therapy for Acute Myeloid Leukemia” (Nature Communications, 2024).
Where two headings read alike, the source gives them in different places.

Assays:
[1] = biological target: T1, HDAC5 (Homo sapiens, UniProt Q9UQL6); experiment: HDAC assay (Eurofins); type: biochemical
T1 construct: purchased Eurofins (contracted assay service)

[2] = biological target: T2, hERG potassium channels (Homo sapiens, UniProt Q12809); experiment: hERG blockade assay (whole-cell patch clamp, CHO cells); type: cell-based; conditions: for IC50: read-out: hERG binding: IC50
T2 construct: host or cells: CHO cells
Procedure: This study was conducted at Wuxi (http://www.wuxi.com/), using CHO cells with stable expression of hERG potassium channels (Sophion Biosciences, Ballerup, Denmark). Cells were cultured (F12 medium, supplemented with 10% FBS, 1% Geneticin® selective antibiotic, 89 μg/mL hygromycin B) in a humidified and air-controlled (5% CO2) incubator at 37 °C ± 2 °C. Test compounds were diluted at different concentrations (0.3 μM–30μM), with a final DMSO concentration in an extracellular solution of <0.3%. The external solution consisted of 2 mM CaCl2, 1 mM MgCl2, 4 mM KCl, 145 mM NaCl, 10 mM glucose and 10 mM HEPES at pH 7.3–7.4. The internal solution consisted of 5.37 mM CaCl2, 1.75 mM MgCl2, 120 mM KCl, 10 mM HEPES, 5 mM EGTA and 4 mM Na2ATP at pH 7.2–7.3. The assay was performed at room temperature using the whole-cell patch clamp techniques controlled with Patchmaster Pro software. For quality control, minimum seal membrane resistance was set at 500 MOhms and the minimum/maximum specific hERG current (pre-compound) was 400 pA/3000 pA. A 100-nM amount of cisapride was used as the positive control to evaluate the reliability of the test system. Results are the average of two biological replicates.

[3] = system: HL-60; experiment: CUT&RUN of BRD4, H3K27Ac and H3K9Ac; type: cell-based, human; conditions: HL-60, 12 h
Procedure: CUT&RUN was performed with the kit CUTANA ChIC/CUT&RUN (Epicypher, 14-1048) following the manufacturer’s instructions. Briefly, 0.5 million of HL-60 cells were harvested and resuspended in 100ul wash buffer [20 mM HEPES pH 7.5, 150 mM NaCl, 0.5 mM Spermidine, supplemented with Protease Inhibitor EDTA-Free tablet (Roche 11836170001)]. Activated Concanavalin A was incubated with cells at room temperature for 10 min to let the cells bind to the beads. For each target protein factor, 0.5 μg of BRD4 CUTANA CUT&RUN antibody (Cat No 13-2003, Epicypher), Acetyl-Histone H3 (Lys 9) (C5B11) rabbit monoclonal antibody diluted 1:50 (Cat No 9649 T, Cell Signaling) or Acetyl-Histone H3 (Lys 27) (D5E4) XP rabbit monoclonal antibody diluted 1:100 (Cat No 8173T, Cell Signaling) was added to each sample and incubated in the antibody buffer (wash buffer +0.01% Digitonin and 2 mM EDTA) overnight at 4 °C. Isotype control IgG was used as a negative control. The beads were then washed twice with digitonin buffer [wash buffer +0.01% Digitonin] and 2.5 μL pAG-MNase was added to each sample. After ten minutes of incubation at room temperature, excessive pAG-MNase was washed out by a two-time digitonin buffer wash. Then targeted chromatin was digested and released from cells by 2 h of incubation with the presence of 2 mM CaCl2 at 4 °C. After incubation with stop buffer [340 mM NaCl, 20 mM EDTA, 4 mM EGTA, 50 μg/mL RNase A, 50 μg/mL Glycogen] for 10 min at 37 °C the supernatant containing CUT&RUN-enriched DNA was purified using the CUTANA DNA Purification kit (Epicypher). Finally, Illumina sequencing libraries were prepared from 6 ng of purified CUT&RUN DNA using NEBNext UltraTM II DNA Library Prep Kit for Illumina, following the manufacturer’s instructions. For BRD4, some modifications were added following the protocol of Nan Liu (Harvard University; 10.17504/protocols.io.wvgfe3w). Libraries were sequenced using NEXTseq500 (Illumina).
The Cut&Run samples were analyzed using the CUT&RUN tools pipeline with default settings and no filtering for 120 bp fragments. Peak calling was performed on deduplicated reads with macs2 version 2.2.6 using the respective IgG samples as control, narrow peak calling and paired-end settings, and a threshold of q = 0.01.
Specifically, 12 chromatin states, based on the combination of 6 histone marks, for 38 AML samples were used[59]. The vast majority of the regions could be entirely annotated to a single chromatin state while some could be entirely annotated to a single chromatin state after the replacement of consecutive chromatin states with similar characteristics with one of them (i.e combination of Transcription Transition / Transcription Elongation / Weak Transcription to Transcription Transition or combination of Heterochromatin; Represesed/ Heterochromatin; Low Signal to Heterochromatin; Repressed etc). The regions that couldn’t be entirely annotated to a single chromatin state or simplified chromatin state were removed. […] We then calculated the percentage of each chromatin state taking into account the width of the regions. As background, we used all the regions of each AML sample and we calculated the percentage of the chromatin states similarly. Finally, we calculated the fold change of each chromatin state as a percentage in the sample to a percentage in the background AML sample.

[4] = Liver microsomal stability; type: in vitro ADME; conditions: read-out: Liver Microsomal Stability Estimation T1/2
Procedure: This study was conducted at Wuxi (http://www.wuxi.com/). […] A 5-μL aliquot of stock solution of test compound (10 mM; 100% DMSO) was diluted in 495 μL of […] (final concentration of 100 μM, 99% MeOH). Then, 50 μL of this intermediate solution was diluted in 450 μL of 100 mM potassium phosphate buffer to a concentration of 10 μM (working solution, 9.9% MeOH). The β-nicotinamide adenine dinucleotide phosphate reduced form (NADPH) regenerating system also contained tetrasodium salt, NADPH•4Na (Sigma, Cat.# No.00616). Human liver microsomes were obtained from Corning (Cat.#452117), and C57 mouse liver microsomes from Xenotech (Cat.#M5000), at a final concentration of 0.5 mg protein/mL. A volume of 10 μL of working solution of test and control compounds (testosterone, diclofenac and propafenone) and 80 μL/well microsome solution were added to a 96-well plate and incubated for 10 min at 37 °C. The reaction was started by the addition of 10 μL of NADPH regenerating system and stopped by the addition of 300 μL of stop solution (acetonitrile at 4 °C, including 100 ng/mL tolbutamide and 100 ng/mL of labetalol as internal standard) at different incubation times (0, 5, 10, 20, 30, and 60 min). Then, the samples were shaken for 10 min and centrifuged at 1699 g for 20 min at 4 °C. An aliquot of supernatant (100 μL) was transferred from each well and mixed with 300 μL of ultra-pure water before submitting to LC-MS/MS analysis. Concentrations of test and control compounds were quantified by LC-MS/MS using a peak area ratio of analyte/internal standard, and the percent loss of the parent compound was calculated at each time point to determine the half-life (t1/2, min). Experiments were performed in duplicate.

T1 sequence (Q9UQL6 whole entry): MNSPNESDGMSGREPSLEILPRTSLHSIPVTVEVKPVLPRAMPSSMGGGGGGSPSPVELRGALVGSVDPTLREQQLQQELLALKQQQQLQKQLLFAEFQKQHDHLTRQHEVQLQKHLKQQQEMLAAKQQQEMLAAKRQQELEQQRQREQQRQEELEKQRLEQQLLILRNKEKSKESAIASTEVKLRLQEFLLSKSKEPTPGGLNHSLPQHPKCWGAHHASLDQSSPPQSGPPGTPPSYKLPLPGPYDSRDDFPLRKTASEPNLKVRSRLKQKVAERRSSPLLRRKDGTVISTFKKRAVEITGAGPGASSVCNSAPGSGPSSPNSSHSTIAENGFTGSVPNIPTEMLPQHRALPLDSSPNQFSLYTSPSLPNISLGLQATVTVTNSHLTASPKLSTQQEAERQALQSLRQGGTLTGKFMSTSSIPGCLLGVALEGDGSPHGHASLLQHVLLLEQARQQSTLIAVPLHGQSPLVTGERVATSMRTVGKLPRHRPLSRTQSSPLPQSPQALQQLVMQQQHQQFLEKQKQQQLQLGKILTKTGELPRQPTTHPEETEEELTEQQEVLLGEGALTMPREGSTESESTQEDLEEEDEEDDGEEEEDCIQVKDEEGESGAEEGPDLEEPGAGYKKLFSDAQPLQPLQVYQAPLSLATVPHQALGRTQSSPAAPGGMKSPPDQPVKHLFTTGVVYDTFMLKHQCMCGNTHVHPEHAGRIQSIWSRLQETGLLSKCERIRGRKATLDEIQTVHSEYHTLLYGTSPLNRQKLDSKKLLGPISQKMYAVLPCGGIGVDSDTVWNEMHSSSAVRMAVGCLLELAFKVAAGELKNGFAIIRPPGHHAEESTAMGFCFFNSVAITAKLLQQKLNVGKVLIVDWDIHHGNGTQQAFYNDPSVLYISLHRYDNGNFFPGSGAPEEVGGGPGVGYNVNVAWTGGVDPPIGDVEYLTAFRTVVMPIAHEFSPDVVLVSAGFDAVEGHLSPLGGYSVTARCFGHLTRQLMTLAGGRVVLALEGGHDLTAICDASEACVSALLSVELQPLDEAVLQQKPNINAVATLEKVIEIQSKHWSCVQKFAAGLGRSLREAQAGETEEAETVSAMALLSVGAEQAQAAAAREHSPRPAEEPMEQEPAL
T2 sequence (Q12809 whole entry): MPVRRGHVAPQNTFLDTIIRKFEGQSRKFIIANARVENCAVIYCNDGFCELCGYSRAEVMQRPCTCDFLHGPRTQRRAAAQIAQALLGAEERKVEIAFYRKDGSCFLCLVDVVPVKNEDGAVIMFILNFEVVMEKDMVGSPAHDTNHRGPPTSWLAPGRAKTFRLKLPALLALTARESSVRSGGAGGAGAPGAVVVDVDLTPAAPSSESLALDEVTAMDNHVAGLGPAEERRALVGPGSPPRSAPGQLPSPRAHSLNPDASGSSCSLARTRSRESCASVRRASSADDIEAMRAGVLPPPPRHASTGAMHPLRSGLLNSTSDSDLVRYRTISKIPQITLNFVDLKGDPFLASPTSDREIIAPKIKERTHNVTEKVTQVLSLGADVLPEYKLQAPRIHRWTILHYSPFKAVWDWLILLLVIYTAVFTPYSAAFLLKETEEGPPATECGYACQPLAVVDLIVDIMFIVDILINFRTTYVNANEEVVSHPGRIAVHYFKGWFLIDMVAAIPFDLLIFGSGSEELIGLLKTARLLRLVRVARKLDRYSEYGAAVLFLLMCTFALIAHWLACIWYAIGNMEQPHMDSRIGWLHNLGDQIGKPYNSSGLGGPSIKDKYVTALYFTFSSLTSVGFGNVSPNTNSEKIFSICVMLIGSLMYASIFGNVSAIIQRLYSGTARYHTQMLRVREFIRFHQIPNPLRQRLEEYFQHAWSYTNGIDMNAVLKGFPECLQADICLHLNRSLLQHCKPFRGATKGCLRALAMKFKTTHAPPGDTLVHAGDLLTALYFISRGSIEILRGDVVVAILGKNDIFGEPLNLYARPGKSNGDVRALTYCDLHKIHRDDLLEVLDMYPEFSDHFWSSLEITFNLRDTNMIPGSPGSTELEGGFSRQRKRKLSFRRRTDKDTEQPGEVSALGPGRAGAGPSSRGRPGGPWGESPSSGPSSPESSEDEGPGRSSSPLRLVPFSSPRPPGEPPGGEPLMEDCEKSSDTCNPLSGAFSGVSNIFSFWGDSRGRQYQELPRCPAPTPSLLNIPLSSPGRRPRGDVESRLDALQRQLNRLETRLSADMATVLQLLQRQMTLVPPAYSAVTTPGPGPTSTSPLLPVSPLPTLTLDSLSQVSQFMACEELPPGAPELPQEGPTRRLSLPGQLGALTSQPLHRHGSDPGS

Structure (SMILES)	IC50 [1] [nM]	inhibition at 10 µM [1] [%]	hERG hill slope [2]	IC50 [2] [µM]	BRD4 CUT&RUN peaks [3]	H3K9Ac CUT&RUN peaks [3]	H3K27Ac CUT&RUN peaks [3]	half-life at 1 µM ([4]; C57, mouse liver microsomes) [min]	half-life at 1 µM ([4]; human liver microsomes) [min]
COc1cc2nc(-c3ccc(C)o3)cc(NCC3CCN(c4ncc(C(=O)NO)cn4)CC3)c2cc1OC [CM-444, 2-[4-[[[6,7-dimethoxy-2-(5-methyl-2-furyl)-4-quinolyl]amino]methyl]-1-piperidyl]pyrimidine-5-carbohydroxamic acid]	59	97	1.33	16.8	19570	7568	48991	18.4	28.8
COc1cc2nc(-c3cc(C)oc3C)cc(NCC3CCN(c4ncc(C(=O)NO)cn4)CC3)c2cc1OC [CM-1758, 2-[4-[[[2-(2,5-dimethyl-3-furyl)-6,7-dimethoxy-4-quinolyl]amino]methyl] -1-piperidyl]pyrimidine-5-carbohydroxamic acid]	270	98	0.99	4.89	–	–	–	12.5	37.9
Cc1[nH]c2ccccc2c1CCNCc1ccc(/C=C/C(=O)NO)cc1 [Panobinostat, reference compound]	–	–	–	–	16030	32775	26959	–	–
